Patent US20220323406A1, “METHODS AND COMPOSITIONS FOR DIFFERENTIATING STEM CELLS” (Massachusetts Institute of Technology, priority 2019, published 2022)

Columns and labels:
[1] = system: ENR+CD organoids; assay: Secondary (validation) screen: ATP (CTG) assay, 2.5-D 384-well ENR+CD organoids; assay type: cell-based, mouse; conditions: 6-day ENR+CD, vs ENR+CD+DMSO
Protocol: (§1) Drugs were tested at a narrowed dose range around each treatment's identified optimal dose from the primary screen (4× below, 2× above and below).
(§2) High-throughput screening.
(§3) Secondary lysozyme secretion assay screen. Confirmatory secondary screening with primary hits was performed using the above 384-well plate method. The screen was conducted with 4-plate replicates with a base media of ENR+CD. Media was supplemented with compound at day 0 and day 3 (n=8 well replicates per dose) at four different doses: two-fold above, two-fold below, and four-fold below the optimal final dose for each respective treatment. Additionally, each plate carried a large number of ENR+DMSO or ENR+CD+DMSO (vehicle) control wells (n=100 for ATP, and n=25 for LYZ.NS and LYZ.S) for robust normalization. ATP, non-stimulated lysozyme activity and CCh-stimulated lysozyme activity was again measured and the collected data was again processed in a custom R-script, per primary screen with slight modification. Values were log10 transformed, and a plate-wise FC was calculated for each well based on the median value of ENR+CD+DMSO (vehicle) control wells to normalize plate to plate variability.

[2] = system: ENR+CD organoids (ISC to Paneth cell differentiation); assay: Secondary (validation) screen: LYZ.S CCh-stimulated lysozyme secretion, 2.5-D 384-well ENR+CD organoids; assay type: cell-based, mouse; conditions: 6-day ENR+CD, vs ENR+CD+DMSO
Protocol: as §1, §2, §3

[3] = system: ENR+CD organoids (ISC to Paneth cell differentiation); assay: Primary screen: basal (non-stimulated) lysozyme secretion LYZ.NS, 2.5-D 384-well ENR+CD organoid differentiation; assay type: cell-based, mouse; conditions: for Z.LYZ.NS / Dose.FC.LYZ.NS: primary screen; for Z.LYZ.NS: standard z score
Description: as §2

[4] = system: ENR+CD organoids (ISC to Paneth cell differentiation); assay: Primary screen: CCh-stimulated lysozyme secretion LYZ.S, 2.5-D 384-well ENR+CD organoid differentiation; assay type: cell-based, mouse; conditions: primary screen
Description: as §2

[5] = system: ENR+CD organoids (ISC to Paneth cell differentiation); assay: Secondary (validation) screen: LYZ.NS basal lysozyme secretion, 2.5-D 384-well ENR+CD organoids; assay type: cell-based, mouse; conditions: for Dose.FC.LYZ.NS / Z.LYZ.NS / repSSMD.LYZ.NS: 6-day ENR+CD, vs ENR+CD+DMSO
Protocol: as §1, §2, §3

[6] = system: ENR+CD organoids; assay: Primary screen: ATP (CellTiter-Glo 3D, CTG) cell number/viability, 2.5-D 384-well ENR+CD organoids; conditions: primary screen; for Z.CTG: standard z score;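 on all read-outs here: compounds given at plating and again on day 3 over a 6-day differentiation from ENR+CV stem-cell-enriched precursors, ATP measured on day 6, plate median as control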
[7] = dose 0.08 uM, FC vs plate median
[8] = dose 0.40 uM, FC vs plate median
[9] = dose 2.00 uM, FC vs plate median
[10] = dose 10.00 uM, FC vs plate median
[11] = dose 0.08 uM, FC relative to plate median
[12] = dose 0.40 uM, FC relative to plate median
[13] = dose 2.00 uM, FC relative to plate median
[14] = dose 10.00 uM, FC relative to plate median

SMILES: CCc1cncnc1N1CCN(Cc2nc3ccc(C(F)(F)F)cc3[nH]2)CC1 [PF-4708671]
- Dose.FC.CTG ([1]; 0.50 uM): −0.049 log2 fold change
- Z.CTG ([1]; 0.50 uM): −0.443
- repSSMD.CTG ([1]; 0.50 uM): −0.324
- Dose.FC.CTG ([1]; 1.00 uM): −0.039 log2 fold change
- Z.CTG ([1]; 1.00 uM): −0.354
- repSSMD.CTG ([1]; 1.00 uM): −0.284
- Dose.FC.CTG ([1]; 2.00 uM): −0.076 log2 fold change
- Z.CTG ([1]; 2.00 uM): −0.684
- repSSMD.CTG ([1]; 2.00 uM): −0.558
- Dose.FC.CTG ([1]; 4.00 uM): 0.067 log2 fold change
- Z.CTG ([1]; 4.00 uM): 0.601
- repSSMD.CTG ([1]; 4.00 uM): 0.414
- Dose.FC.LYZ.S ([2]; 0.50 uM): −0.040 log2 fold change
- Z.LYZ.S ([2]; 0.50 uM): −0.305
- repSSMD.LYZ.S ([2]; 0.50 uM): −0.496
- Dose.FC.LYZ.S ([2]; 1.00 uM): −0.245 log2 fold change
- Z.LYZ.S ([2]; 1.00 uM): −1.879
- repSSMD.LYZ.S ([2]; 1.00 uM): −2.451
- Dose.FC.LYZ.S ([2]; 2.00 uM): −0.272 log2 fold change
- Z.LYZ.S ([2]; 2.00 uM): −2.088
- repSSMD.LYZ.S ([2]; 2.00 uM): −3.604
- Dose.FC.LYZ.S ([2]; 4.00 uM): −0.042 log2 fold change
- Z.LYZ.S ([2]; 4.00 uM): −0.320
- repSSMD.LYZ.S ([2]; 4.00 uM): −0.503
- Z.LYZ.NS ([3]; dose 0.08 uM): 0.654
- Z.LYZ.NS ([3]; dose 0.40 uM): 1.059
- Z.LYZ.NS ([3]; dose 2.00 uM): 1.721
- Z.LYZ.NS ([3]; dose 10.00 uM): 0.297
- Dose.FC.LYZ.NS [3, 7]: 0.075 log2 fold change
- Dose.FC.LYZ.NS [3, 8]: 0.122 log2 fold change
- Dose.FC.LYZ.NS [3, 9]: 0.198 log2 fold change
- Dose.FC.LYZ.NS [3, 10]: 0.034 log2 fold change
- Dose.FC.LYZ.S [4, 7]: 0.136 log2 fold change
- Dose.FC.LYZ.S [4, 8]: 0.172 log2 fold change
- Dose.FC.LYZ.S [4, 9]: 0.209 log2 fold change
- Dose.FC.LYZ.S [4, 10]: −0.024 log2 fold change
- Dose.FC.LYZ.NS ([5]; 0.50 uM): 0.005 log2 fold change
- Z.LYZ.NS ([5]; 0.50 uM): 0.039
- repSSMD.LYZ.NS ([5]; 0.50 uM): 0.058
- Dose.FC.LYZ.NS ([5]; 1.00 uM): −0.200 log2 fold change
- Z.LYZ.NS ([5]; 1.00 uM): −1.600
- repSSMD.LYZ.NS ([5]; 1.00 uM): −1.909
- Dose.FC.LYZ.NS ([5]; 2.00 uM): −0.221 log2 fold change
- Z.LYZ.NS ([5]; 2.00 uM): −1.764
- repSSMD.LYZ.NS ([5]; 2.00 uM): −2.529
- Dose.FC.LYZ.NS ([5]; 4.00 uM): 0.015 log2 fold change
- Z.LYZ.NS ([5]; 4.00 uM): 0.120
- repSSMD.LYZ.NS ([5]; 4.00 uM): 0.171
- Z.CTG ([6]; dose 0.08 uM): 0.623
- Z.CTG ([6]; dose 0.40 uM): 0.640
- Z.CTG ([6]; dose 2.00 uM): 0.721
- Z.CTG ([6]; dose 10.00 uM): −0.766
- Dose.FC.CTG [6, 7]: 0.261 log2 fold change
- Dose.FC.CTG [6, 8]: 0.268 log2 fold change
- Dose.FC.CTG [6, 9]: 0.302 log2 fold change
- Dose.FC.CTG [6, 10]: −0.321 log2 fold change

SMILES: Cc1[nH]c(/C=C2\C(=O)Nc3ccc(S(=O)(=O)Cc4c(Cl)cccc4Cl)cc32)c(C)c1C(=O)N1CCC[C@@H]1CN1CCCC1 [PHA-665752]
- Dose.FC.CTG ([1]; 0.10 uM): 0.100 log2 fold change
- Z.CTG ([1]; 0.10 uM): 0.898
- repSSMD.CTG ([1]; 0.10 uM): 0.755
- Dose.FC.CTG ([1]; 0.20 uM): −0.032 log2 fold change
- Z.CTG ([1]; 0.20 uM): −0.288
- repSSMD.CTG ([1]; 0.20 uM): −0.244
- Dose.FC.CTG ([1]; 0.40 uM): 0.303 log2 fold change
- Z.CTG ([1]; 0.40 uM): 2.735
- repSSMD.CTG ([1]; 0.40 uM): 1.415
- Dose.FC.CTG ([1]; 0.80 uM): 0.185 log2 fold change
- Z.CTG ([1]; 0.80 uM): 1.664
- repSSMD.CTG ([1]; 0.80 uM): 1.023
- Dose.FC.LYZ.S ([2]; 0.10 uM): 0.133 log2 fold change
- Z.LYZ.S ([2]; 0.10 uM): 1.019
- repSSMD.LYZ.S ([2]; 0.10 uM): 1.586
- Dose.FC.LYZ.S ([2]; 0.20 uM): −0.089 log2 fold change
- Z.LYZ.S ([2]; 0.20 uM): −0.680
- repSSMD.LYZ.S ([2]; 0.20 uM): −1.201
- Dose.FC.LYZ.S ([2]; 0.40 uM): 0.076 log2 fold change
- Z.LYZ.S ([2]; 0.40 uM): 0.585
- repSSMD.LYZ.S ([2]; 0.40 uM): 0.906
- Dose.FC.LYZ.S ([2]; 0.80 uM): 0.048 log2 fold change
- Z.LYZ.S ([2]; 0.80 uM): 0.365
- repSSMD.LYZ.S ([2]; 0.80 uM): 0.542
- Z.LYZ.NS ([3]; dose 0.08 uM): 1.586
- Z.LYZ.NS ([3]; dose 0.40 uM): 2.368
- Z.LYZ.NS ([3]; dose 2.00 uM): 1.591
- Z.LYZ.NS ([3]; dose 10.00 uM): −0.931
- Dose.FC.LYZ.NS [3, 7]: 0.182 log2 fold change
- Dose.FC.LYZ.NS [3, 8]: 0.272 log2 fold change
- Dose.FC.LYZ.NS [3, 9]: 0.183 log2 fold change
- Dose.FC.LYZ.NS [3, 10]: −0.107 log2 fold change
- Dose.FC.LYZ.S [4, 7]: 0.163 log2 fold change
- Dose.FC.LYZ.S [4, 8]: 0.373 log2 fold change
- Dose.FC.LYZ.S [4, 9]: 0.143 log2 fold change
- Dose.FC.LYZ.S [4, 10]: −0.165 log2 fold change
- Dose.FC.LYZ.NS ([5]; 0.10 uM): 0.210 log2 fold change
- Z.LYZ.NS ([5]; 0.10 uM): 1.675
- repSSMD.LYZ.NS ([5]; 0.10 uM): 2.400
- Dose.FC.LYZ.NS ([5]; 0.20 uM): −0.027 log2 fold change
- Z.LYZ.NS ([5]; 0.20 uM): −0.219
- repSSMD.LYZ.NS ([5]; 0.20 uM): −0.350
- Dose.FC.LYZ.NS ([5]; 0.40 uM): 0.099 log2 fold change
- Z.LYZ.NS ([5]; 0.40 uM): 0.789
- repSSMD.LYZ.NS ([5]; 0.40 uM): 0.942
- Dose.FC.LYZ.NS ([5]; 0.80 uM): 0.090 log2 fold change
- Z.LYZ.NS ([5]; 0.80 uM): 0.722
- repSSMD.LYZ.NS ([5]; 0.80 uM): 1.142
- validated doses in secondary screen (SSMD above cutoff in both LYZ assays) ([5]; LYZ.NS and LYZ.S): multiple validated doses
- Z.CTG ([6]; dose 0.08 uM): 1.126
- Z.CTG ([6]; dose 0.40 uM): 1.482
- Z.CTG ([6]; dose 2.00 uM): 1.339
- Z.CTG ([6]; dose 10.00 uM): 0.057
- Dose.FC.CTG [6, 7]: 0.471 log2 fold change
- Dose.FC.CTG [6, 8]: 0.620 log2 fold change
- Dose.FC.CTG [6, 9]: 0.561 log2 fold change
- Dose.FC.CTG [6, 10]: 0.024 log2 fold change

SMILES: COc1ccc(C2CNC(=O)C2)cc1OC1CCCC1 (stereo not shown) [Rolipram, reference compound]
- Dose.FC.CTG ([1]; 0.50 uM): 0.053 log2 fold change
- Dose.FC.CTG ([1]; 1.00 uM): 0.133 log2 fold change
- Dose.FC.CTG ([1]; 2.00 uM): 0.202 log2 fold change
- Dose.FC.CTG ([1]; 4.00 uM): 0.065 log2 fold change
- Dose.FC.LYZ.S ([2]; 0.50 uM): −0.082 log2 fold change
- Dose.FC.LYZ.S ([2]; 1.00 uM): 0.104 log2 fold change
- Dose.FC.LYZ.S ([2]; 2.00 uM): 0.030 log2 fold change
- Dose.FC.LYZ.S ([2]; 4.00 uM): −0.071 log2 fold change
- primary screen hit call (SSMD and z-scored FC cutoffs in both LYZ assays) ([3]; LYZ.NS and LYZ.S, 0.08-10 uM, 6 days ENR+CD): sole hit in their respective pathway
- Dose.FC.LYZ.NS [3, 11]: 0.406 log2 fold change
- Z.LYZ.NS ([3]; dose 0.08 uM): 3.532
- Dose.FC.LYZ.NS [3, 12]: 0.063 log2 fold change
- Z.LYZ.NS ([3]; dose 0.40 uM): 0.545
- Dose.FC.LYZ.NS [3, 13]: 0.169 log2 fold change
- Z.LYZ.NS ([3]; dose 2.00 uM): 1.470
- Dose.FC.LYZ.NS [3, 14]: 0.112 log2 fold change
- Z.LYZ.NS ([3]; dose 10.00 uM): 0.975
- Dose.FC.LYZ.S [4, 11]: 0.239 log2 fold change
- Dose.FC.LYZ.S [4, 12]: 0.156 log2 fold change
- Dose.FC.LYZ.S [4, 13]: 0.337 log2 fold change
- Dose.FC.LYZ.S [4, 14]: 0.223 log2 fold change
- Dose.FC.LYZ.NS ([5]; 0.50 uM): −0.043 log2 fold change
- Dose.FC.LYZ.NS ([5]; 1.00 uM): 0.152 log2 fold change
- Dose.FC.LYZ.NS ([5]; 2.00 uM): 0.099 log2 fold change
- Dose.FC.LYZ.NS ([5]; 4.00 uM): −0.051 log2 fold change
- Dose.FC.CTG [6, 11]: 0.356 log2 fold change
- Dose.FC.CTG [6, 12]: 0.155 log2 fold change
- Dose.FC.CTG [6, 13]: 0.396 log2 fold change
- Dose.FC.CTG [6, 14]: 0.299 log2 fold change
